Assay results reported in patent publication US20110105623A1 (Biogenic Innovations, LLC, priority 2009, published 2011).
Values joined by “and” are separate entries in the source; they are usually repeats but may differ in a detail not shown here. Equal values may be shown once. Read-outs that look alike come from different tables or passages of the source.

Assays:
[1] = tested on: Bifidobacterium bifidum ATCC #29521; experiment: Growth in MRS broth + L-cysteine fortified with MSM
[2] = tested on: Candida albicans; experiment: USP <51> AET in cosmetic cream/composition; type: cell-based; conditions: for AET microorganism count: 48 hrs-28 days; for Log Reduction from Initial Microorganism Inoculum: 14, 28 Days
[3] = tested on: White Labs Edinburgh Ale yeast; experiment: Fermentation efficiency in production of beer (Scotch Ale); type: cell-based; conditions: 0.5% MSM
Text: This positive impact includes such organisms as fungi, yeast, and bacteria. Yeast cultures are involved in the production of beer during the fermentation process to produce ethanol and carbon dioxide. […] Wort is the liquid extracted from the mashing process during the brewing of beer or whisky. Wort contains the sugars that are fermented by the brewing yeast to produce alcohol.
This Procedure is detailed below.
After preparing the mash, the brewing process was started. […] Equipment was cleaned thoroughly with PBW. The wort chiller and filtered air stone were sanitized with brewing sanitizer (San Star Brewing Sanitizer). […] At 30 minutes of boil, a second aliquot (0.5 ounces) of Cascade hops was added. At 40 minutes of boil, third aliquot (0.5 ounces) of Cascade hops was added as well as 2 teaspoons of […] Moss. At 50 minutes of boil, a fourth aliquot (0.5 ounces) of Cascade hops was added. Wort was decanted from the brew kettle to the wort chiller and chilled to 74° F. The wort was then divided into two fermentors (each 21 liters in volume). […] Both fermentors were aerated for 25 minutes with sanitized filtered air stone.

[4] = tested on: Swine-like H1N1 Influenza A virus strain A/California/04/2009; type: cell-based
[5] = tested on: Staphylococcus aureus; experiment: USP AET, MSM in TSB; type: cell-based; design: key to AET microorganism count: Colonies too numerous to count (TNTC); conditions: for Log Reduction from Initial Microorganism Inoculum: 1:10 dilution of MSM, 14, 28 Days; for AET microorganism count: 48 hrs
Text: (§1) Compounds or formulated products having antimicrobial activity may be evaluated with the United States Pharmacopeia (USP) Antimicrobial Effectiveness Test (AET). The AET involves the addition of specified microorganisms (Candida albicans, Aspergillus niger, Escherichia coli, Pseudomonas aeruginosa and Staphylococcus aureus) directly to a test product at relatively high concentrations to simulate contamination. The product is held for one month, with weekly analysis of microorganism levels. Depending on the route of administration of a product, satisfaction of the AET generally requires a 1 to 3 log reduction in bacteria from initial levels, which should occur in one to two weeks, with no further increase in bacteria after two weeks. For yeast and mold, no increase from the initial inoculums level is permitted.
(§2) Inoculations were made using Candida albicans, Aspergillus niger, Escherichia coli, Pseudomonas aeruginosa and Staphylococcus aureus. Tryptic soy broth (TSB) was used as the culturing media. […] The inoculated media was held for one month, during which time the added microorganisms were enumerated weekly to determine if they were growing, dying off, or remaining near the initial inoculation level. Data points were measured in triplicate at 48 hours, 3, 5, 14, 20, 28, and 30 days. The acceptance criteria for antimicrobial effectiveness are described in detail in the USP, herein incorporated by reference.

[6] = tested on: Candida albicans; experiment: USP AET, MSM in TSB; type: cell-based; design: key to AET microorganism count: Colonies too numerous to count (TNTC); conditions: for Log Reduction from Initial Microorganism Inoculum: 1:10 dilution of MSM, 14, 28 Days; for AET microorganism count: 48 hrs
Text: as §1, §2

[7] = tested on: Salmonella typhimurium; experiment: USP AET, MSM in TSB; type: cell-based; design: key: Colonies too numerous to count (TNTC); conditions: 48 hrs

Methylsulfonylmethane [MSM]
Log Growth of Bifidobacteruim bifidum in Media Fortified with MSM ([1]; 0.125% MSM, Hr 0): 1.12 logs
Log Growth of Bifidobacteruim bifidum in Media Fortified with MSM ([1]; 0.125% MSM, Hr 8): 2.89 logs
Log Growth of Bifidobacteruim bifidum in Media Fortified with MSM ([1]; 0.125% MSM, Hr 16): 7.85 logs
Log Growth of Bifidobacteruim bifidum in Media Fortified with MSM ([1]; 0.125% MSM, Hr 24): 9.06 logs
Log Growth of Bifidobacteruim bifidum in Media Fortified with MSM ([1]; 0.125% MSM, Hr 32): 11.45 logs
Log Growth of Bifidobacteruim bifidum in Media Fortified with MSM ([1]; 0.125% MSM, Hr 40): 10.80 logs
Log Growth of Bifidobacteruim bifidum in Media Fortified with MSM ([1]; 0.125% MSM, Hr 48): 8.22 logs
Log Growth of Bifidobacteruim bifidum in Media Fortified with MSM ([1]; 0.125% MSM, Hr 56): 7.25 logs
Log Growth of Bifidobacteruim bifidum in Media Fortified with MSM ([1]; 0.125% MSM, Hr 64): 8.86 logs
Log Growth of Bifidobacteruim bifidum in Media Fortified with MSM ([1]; 0.125% MSM, Hr 72): 6.59 logs
Log Growth of Bifidobacteruim bifidum in Media Fortified with MSM ([1]; 0.125% MSM, Hr 80): 9.12 logs
Log Growth of Bifidobacteruim bifidum in Media Fortified with MSM ([1]; 0.125% MSM, Hr 88): 9.12 logs
Log Growth of Bifidobacteruim bifidum in Media Fortified with MSM ([1]; 0.125% MSM, Hr 96): <6.00 logs
Log Growth of Bifidobacteruim bifidum in Media Fortified with MSM ([1]; 0.5% MSM, Hr 0): 1.00 logs
Log Growth of Bifidobacteruim bifidum in Media Fortified with MSM ([1]; 0.5% MSM, Hr 8): 2.84 logs
Log Growth of Bifidobacteruim bifidum in Media Fortified with MSM ([1]; 0.5% MSM, Hr 16): 7.45 logs
Log Growth of Bifidobacteruim bifidum in Media Fortified with MSM ([1]; 0.5% MSM, Hr 24): 8.81 logs
Log Growth of Bifidobacteruim bifidum in Media Fortified with MSM ([1]; 0.5% MSM, Hr 32): 11.22 logs
Log Growth of Bifidobacteruim bifidum in Media Fortified with MSM ([1]; 0.5% MSM, Hr 40): 12.09 logs
Log Growth of Bifidobacteruim bifidum in Media Fortified with MSM ([1]; 0.5% MSM, Hr 48): 9.39 logs
Log Growth of Bifidobacteruim bifidum in Media Fortified with MSM ([1]; 0.5% MSM, Hr 56): 9.51 logs
Log Growth of Bifidobacteruim bifidum in Media Fortified with MSM ([1]; 0.5% MSM, Hr 64): 10.34 logs
Log Growth of Bifidobacteruim bifidum in Media Fortified with MSM ([1]; 0.5% MSM, Hr 72): 8.35 logs
Log Growth of Bifidobacteruim bifidum in Media Fortified with MSM ([1]; 0.5% MSM, Hr 80): 10.38 logs
Log Growth of Bifidobacteruim bifidum in Media Fortified with MSM ([1]; 0.5% MSM, Hr 88): 9.70 logs
Log Growth of Bifidobacteruim bifidum in Media Fortified with MSM ([1]; 0.5% MSM, Hr 96): 8.82 logs
log growth ([1]; 0.5% MSM, hour 96): 8.82 logs
log growth (estimated, outside the countable range) ([1]; 1% MSM, Hour 96): less than 6 logs
Log Growth of Bifidobacteruim bifidum in Media Fortified with MSM ([1]; 1% MSM, Hr 0): 1.00 logs
Log Growth of Bifidobacteruim bifidum in Media Fortified with MSM ([1]; 1% MSM, Hr 8): 2.73 logs
Log Growth of Bifidobacteruim bifidum in Media Fortified with MSM ([1]; 1% MSM, Hr 16): 7.73 logs
Log Growth of Bifidobacteruim bifidum in Media Fortified with MSM ([1]; 1% MSM, Hr 24): 8.81 logs
Log Growth of Bifidobacteruim bifidum in Media Fortified with MSM ([1]; 1% MSM, Hr 32): 11.49 logs
Log Growth of Bifidobacteruim bifidum in Media Fortified with MSM ([1]; 1% MSM, Hr 40): 11.19 logs
Log Growth of Bifidobacteruim bifidum in Media Fortified with MSM ([1]; 1% MSM, Hr 48): 10.43 logs
Log Growth of Bifidobacteruim bifidum in Media Fortified with MSM ([1]; 1% MSM, Hr 56): 10.57 logs
Log Growth of Bifidobacteruim bifidum in Media Fortified with MSM ([1]; 1% MSM, Hr 64): 10.66 logs
Log Growth of Bifidobacteruim bifidum in Media Fortified with MSM ([1]; 1% MSM, Hr 72): 8.34 logs
Log Growth of Bifidobacteruim bifidum in Media Fortified with MSM ([1]; 1% MSM, Hr 80): 9.43 logs
Log Growth of Bifidobacteruim bifidum in Media Fortified with MSM ([1]; 1% MSM, Hr 88): 10.41 logs
Log Growth of Bifidobacteruim bifidum in Media Fortified with MSM ([1]; 1% MSM, Hr 96): <6.00 logs
Log Growth of Bifidobacteruim bifidum in Media Fortified with MSM ([1]; 5% MSM, Hr 0): 1.12 logs
Log Growth of Bifidobacteruim bifidum in Media Fortified with MSM ([1]; 5% MSM, Hr 8): 2.04 logs
Log Growth of Bifidobacteruim bifidum in Media Fortified with MSM ([1]; 5% MSM, Hr 16): 6.10 logs
Log Growth of Bifidobacteruim bifidum in Media Fortified with MSM ([1]; 5% MSM, Hr 24): 8.43 logs
Log Growth of Bifidobacteruim bifidum in Media Fortified with MSM ([1]; 5% MSM, Hr 32): 11.13 logs
Log Growth of Bifidobacteruim bifidum in Media Fortified with MSM ([1]; 5% MSM, Hr 40): 11.78 logs
Log Growth of Bifidobacteruim bifidum in Media Fortified with MSM ([1]; 5% MSM, Hr 48): 10.70 logs
Log Growth of Bifidobacteruim bifidum in Media Fortified with MSM ([1]; 5% MSM, Hr 56): 10.59 logs
Log Growth of Bifidobacteruim bifidum in Media Fortified with MSM ([1]; 5% MSM, Hr 64): 14.32 logs
Log Growth of Bifidobacteruim bifidum in Media Fortified with MSM ([1]; 5% MSM, Hr 72): 8.65 logs
Log Growth of Bifidobacteruim bifidum in Media Fortified with MSM ([1]; 5% MSM, Hr 80): 12.20 logs
Log Growth of Bifidobacteruim bifidum in Media Fortified with MSM ([1]; 5% MSM, Hr 88): 12.31 logs
Log Growth of Bifidobacteruim bifidum in Media Fortified with MSM ([1]; 5% MSM, Hr 96): 9.60 logs
Log Growth of Bifidobacteruim bifidum in Media Fortified with MSM ([1]; […] MSM, Hr 96): <6.00 logs
maximum reached before the control ([1]; all MSM concentrations): 16 h
AET microorganism count ([2]; 10% MSM in Preservative Free Cosmetic Composition #2, 48 hours after inoculation): 9.0 × 10^2
AET microorganism count ([2]; 10% MSM in Preservative Free Cosmetic Composition #2, 7 days after inoculation): <10
AET microorganism count ([2]; 10% MSM in cosmetic cream without preservative): <10
Log Reduction from Initial Microorganism Inoculum ([2]; 10% MSM in preservative-free jojoba cream): 4.3 log
Log Reduction from Initial Microorganism Inoculum ([2]; 10% MSM, Composition #1): 5.3 log
Log Reduction from Initial Microorganism Inoculum ([2]; 10% MSM, Composition #2): 5.3 log
fermentor activity sooner than control [3]: 58%
sooner time of completion [3]: 17-25%
starter activity sooner than control [3]: 80%
time to activity, fermentor [3]: 3.5 h
time to maximum fermentation [3]: 5 days
Average Log Stimulation [4]: 0.17log10
Average Percent Stimulation [4]: 32.39%
Average TCID50 [4]: 3.67log10 and 4.42log10 and 4.67log10 and 5.00log10 and 4.58log10 and 4.17log10
CPE at dilution −6 [4]: 0000
CPE at dilution −7 [4]: 0000
Log Stimulation [4]: 0.17log10
Percent Stimulation [4]: 32.39%
TCID50 [4]: 3.75log10 and 3.50log10 and 4.00log10 and 4.50log10 and 4.25log10 and 4.75log10 and 5.00log10
average percent reduction [4]: 93.08% and 90.00% and 61.10% and 78.12%
average log10 reduction ([4]; 1% MSM): 0.25 log10
average percent reduction ([4]; 1% MSM): 43.77%
average log10 reduction ([4]; 2% MSM): 0.41 log10
average percent reduction ([4]; 2% MSM): 61.10%
average log10 reduction ([4]; 3% MSM): 0.00 log10
average percent reduction ([4]; 3% MSM): 00.00%
average log10 reduction ([4]; 4% MSM): 0.16 log10
average percent reduction ([4]; 4% MSM): 30.82%
Response, % reduction ([4]; Dose 5.312 mM (log dose 0.7252581)): 91.680% and 53.230% and 73.700%
Response, % reduction ([4]; Dose 31.871 mM (log dose 1.503396)): 0.000%
Response, % reduction ([4]; Dose 53.118 mM (log dose 1.725242)): 53.230% and 73.700%
HillSlope, best-fit value ([4]; log(inhibitor) vs. normalized response, variable slope): 0.2135
LogIC50, best-fit value ([4]; log(inhibitor) vs. normalized response, variable slope, dose in mM): 0.7087
Log Reduction from Initial Microorganism Inoculum ([5]; 14 days after inoculation): 4.5 log
Log Reduction from Initial Microorganism Inoculum ([5]; 28 days after inoculation): 4.7 log
AET microorganism count ([5]; 1:100 dilution of MSM): TNTC
AET microorganism count ([5]; 1:1000 dilution of MSM): TNTC
Log Reduction from Initial Microorganism Inoculum ([6]; 14 days after inoculation): 4.2 log
Log Reduction from Initial Microorganism Inoculum ([6]; 28 days after inoculation): 4.4 log
AET microorganism count ([6]; 1:100 dilution of MSM): TNTC
AET microorganism count ([6]; 1:1000 dilution of MSM): TNTC
AET microorganism count ([7]; 1:100 dilution of MSM): TNTC
AET microorganism count ([7]; 1:1000 dilution of MSM): TNTC
